Laboratory results reported in PMC8591201, “Anti-Tumor Activity of AZD4547 Against NTRK1 Fusion Positive Cancer Cells Through Inhibition of NTRKs” (Frontiers in Oncology, 2021).

Columns and labels:
in vitro = experiment: in vitro; design: CellTiter-Glo viability of parental Ba/F3 cells, counter-screen; details: mouse, parental ba/f3 cells
Description: To obtain the GI50 value of a substance, cell viability was measured using MTT (G4000, Promega, USA) for KM12(Luc) cell and Cell titer glo (G7572, Promega, USA) for other cell lines. For adherent cells, cells were seeded at 5,000 cells/well in a 96-well plate and treated with a substance one day after cell seeding. For suspension cells, 10,000 cells/well were seeded and the substance was treated after 4 h stabilization of cells. The substance was treated at 10 points of 1:3 serial dilution (0–100 µmol/L) for 72 h. For MTT assay, 15 µL dye solution was added to each well and incubated 4 h at 37°C. 100 µL of solubilization solution was added and followed 1 hr incubation. Absorbance at 570 nm of each well was recorded using EnVision microplate reader (Perkin Elmer). For Cell titer glo assay, Cell titer glo reagent was treated in each well and measured the luminescence by EnVision microplate reader (Perkin Elmer). Viable cells in each well were normalized by using 0.5% DMSO-treated wells (100%). The inhibitor dose−response curve was fitted and GI50 values were calculated using Prism 7.0 software (GraphPad). All assays were performed in duplicate and the standard deviation (SD) was determined from two independent experiments. […] Cell viability after 72 h exposure to the indicated inhibitors, determined by using a cell titer glo assay in duplicate mode. […]

TRKA G667A = system: T1, TRKA G667A; experiment: cells; design: species or system Ba/F3; CellTiter-Glo anti-proliferation of Ba/F3 cells transformed with ETV6-NTRK fusions; details: Mus musculus, BaF3, 72 h, read-out: LOXO195 GI50
T1 construct: ETV6 (1-336)-NTRK1 kinase domain (434-790) fusion expressed in Ba/F3
Description: (§1) To obtain the GI50 value of a substance, cell viability was measured using MTT (G4000, Promega, USA) for KM12(Luc) cell and Cell titer glo (G7572, Promega, USA) for other cell lines. For adherent cells, cells were seeded at 5,000 cells/well in a 96-well plate and treated with a substance one day after cell seeding. For suspension cells, 10,000 cells/well were seeded and the substance was treated after 4 h stabilization of cells. The substance was treated at 10 points of 1:3 serial dilution (0–100 µmol/L) for 72 h. For MTT assay, 15 µL dye solution was added to each well and incubated 4 h at 37°C. 100 µL of solubilization solution was added and followed 1 hr incubation. Absorbance at 570 nm of each well was recorded using EnVision microplate reader (Perkin Elmer). For Cell titer glo assay, Cell titer glo reagent was treated in each well and measured the luminescence by EnVision microplate reader (Perkin Elmer). Viable cells in each well were normalized by using 0.5% DMSO-treated wells (100%). The inhibitor dose−response curve was fitted and GI50 values were calculated using Prism 7.0 software (GraphPad). All assays were performed in duplicate and the standard deviation (SD) was determined from two independent experiments. To investigate the inhibitory activity of AZD4547 against clinically relevant TRK mutants which have resistance to the known TRK inhibitors ([8], [44]), we established Ba/F3 cell lines harboring the ETV6-NTRKs fusion genes (NTRK1, NTRK1G595R, NTRK1G667A, NTRK1G667C, NTRK1G667S and NTRK2) ( Supplementary Figure 2 ). The mutation status of each established cell line was confirmed by sequencing of its cDNA ( Supplementary Figure 2 ). The anti-proliferation activity of AZD4547 was then measured in each cell line ( Figure 2A and Table S2 ). […] However, AZD4547 has no inhibitory activity against Ba/F3 harboring clinically relevant TRKs mutants including TRKA G595R, TRKA G667S, TRKA G667C and TRKA G667A. We next evaluated if AZD4547 is capable of suppressing the phosphorylation of TRKA/B in Ba/F3 cell lines ( Figure 2B ). […] Also, phosphorylation of TRKA/B is almost completely abolished using 1 µM of AZD4547. […] (A) Summary of GI50s of AZD4547 against Ba/F3: TRKA mutants or TRKB. Cell viability after 72 h exposure to the indicated inhibitors, determined by using a cell titer glo assay in duplicate mode. Data was plotted as mean GI50 ± SD of two independent experiments. (B) AZD4547 inhibits phosphorylation of TRKA/B and PLC-gamma in Ba/F3 harboring TRKA and TRKB, respectively. […] Data are representative of three independent experiments.

TRKA = system: T2, TRKA; experiment: cells; design: species or system Ba/F3; CellTiter-Glo anti-proliferation of Ba/F3 cells transformed with ETV6-NTRK fusions; details: Mus musculus, BaF3, 72 h, read-out: LOXO195 GI50
T2 construct: ETV6 (1-336)-NTRK1 kinase domain (434-790) fusion expressed in Ba/F3
Description: as §1

TRKB = system: T3, TRKB; experiment: cells; design: species or system Ba/F3; CellTiter-Glo anti-proliferation of Ba/F3 cells transformed with ETV6-NTRK fusions; details: Mus musculus, BaF3, 72 h, read-out: LOXO195 GI50
T3 construct: ETV6 (1-336)-NTRK2 kinase domain (455-822) fusion expressed in Ba/F3
Description: as §1

TRKA G667S = system: T4, TRKA G667S; experiment: cells; design: species or system Ba/F3; CellTiter-Glo anti-proliferation of Ba/F3 cells transformed with ETV6-NTRK fusions; details: Mus musculus, BaF3, 72 h, read-out: LOXO195 GI50
T4 construct: ETV6 (1-336)-NTRK1 kinase domain (434-790) fusion expressed in Ba/F3
Description: as §1

TRKA G595R = system: T5, TRKA G595R; experiment: cells; design: species or system Ba/F3; CellTiter-Glo anti-proliferation of Ba/F3 cells transformed with ETV6-NTRK fusions; details: Mus musculus, BaF3, 72 h, read-out: LOXO195 GI50
T5 construct: ETV6 (1-336)-NTRK1 kinase domain (434-790) fusion expressed in Ba/F3
Description: as §1

TRKA G667C = system: T6, TRKA G667C; experiment: cells; design: species or system Ba/F3; CellTiter-Glo anti-proliferation of Ba/F3 cells transformed with ETV6-NTRK fusions; details: Mus musculus, BaF3, 72 h, read-out: LOXO195 GI50
T6 construct: ETV6 (1-336)-NTRK1 kinase domain (434-790) fusion expressed in Ba/F3
Description: as §1

C[C@@H]1CCc2ncc(F)cc2[C@H]2CCCN2c2ccn3ncc(c3n2)C(=O)N1 [LOXO195]
CC50 at 72 h (in vitro): > 2000 nM | GI50 (TRKA G667A): 24.1 ± 8.3 nM | GI50 (TRKA): […] | GI50 (TRKB): […] | GI50 (TRKA G667S): 35.5 ± 2.5 nM | GI50 (TRKA G595R): […] | GI50 (TRKA G667C): […]
